Assays:
SARS-CoV-2 [1] = experiment: Antiviral activity against SARS-CoV-2 infected in African green monkey Vero E6 cells assessed as inhibition of viral infection; format: functional, organism-based; conditions: Severe acute respiratory syndrome coronavirus 2, Vero C1008
[2] = Selectivity index, ratio of CC50 for African green monkey Vero E6 cells to IC50 for SARS-CoV-2 infected in African green monkey Vero E6 cells; format: toxicity; conditions: read-out: Selectivity Index
[3] = Cytotoxicity against African green monkey Vero E6 cells assessed as reduction in cell viability; format: toxicity, cell-based, Vero C1008; conditions: chlorocebus sabaeus
SARS-CoV-2 [4] = experiment: Antiviral activity against SARS-CoV-2 infected in African green monkey Vero E6 cells; format: functional, organism-based; conditions: Severe acute respiratory syndrome coronavirus 2, Vero C1008

Work on `CCN(CC)CCCC(C)Nc1ccnc2cc(Cl)ccc12` (stereo not drawn) [CHLOROQUINE] yielded an IC50 (SARS-CoV-2 [1]) of 25 µM.
For `CCN(CCO)CCCC(C)Nc1ccnc2cc(Cl)ccc12` (stereo not drawn) [HYDROXYCHLOROQUINE], the selectivity ratio [2] was 9.7, the CC50 [3] was 356 µM and the IC50 (SARS-CoV-2 [1]) was 36.9 µM.
`NC(=O)c1nc(F)cnc1O` showed a selectivity ratio [2] of 3.8, a CC50 [3] of 5260 µM and an IC50 (SARS-CoV-2 [1]) of 1380 µM.
`COc1cccc2[nH]c(C(=O)N[C@@H](CC(C)C)C(=O)N[C@@H](C[C@@H]3CCNC3=O)C(=O)CO)cc12` [PF-00835231] gave an EC50 (SARS-CoV-2 [4]) of at most 0.23 µM.

Reference: ChEMBL document CHEMBL5620392, “Spiroindole-containing compounds bearing phosphonate group of potential Mpro-SARS-CoV-2 inhibitory properties” (Eur J Med Chem, 2023)
